Biological target: T1, MUN-1 beta-lactamase
T1 construct: gene blaMUN-1; full gene cloned in pTOPO-kanR, expressed in E. coli TOP10, purified by ion exchange; no tag mentioned
Test: beta-lactamase inhibition
Assay type: biochemical, Escherichia coli
Conditions: covalent (known mechanism); reporter substrate and buffer only in supplement

SMILES	IC50 [nM]
NC(=O)[C@@H]1CC[C@@H]2CN1C(=O)N2OS(=O)(=O)O [avibactam]	3.8
O=C(O)[C@H]1/C(=C/CO)O[C@@H]2CC(=O)N21 [clavulanic acid]	0.32
C[C@]1(Cn2ccnn2)[C@H](C(=O)O)N2C(=O)C[C@H]2S1(=O)=O [tazobactam]	0.8

Test system: T1, MUN-1 beta-lactamase
Test: hydrolysis kinetics, purified beta-lactamase
Assay type: biochemical, Escherichia coli
Conditions: details in supplement; read-out: Kinetic measurement / Km
Description: hydrolysis kinetics, purified beta-lactamase on MUN-1 beta-lactamase

SMILES	Km [µM]
CC1(C)S[C@@H]2[C@H](NC(=O)[C@H](N)c3ccccc3)C(=O)N2[C@H]1C(=O)O [Ampicillin]	280
C[C@H]1[C@H](NC(=O)/C(=N\OC(C)(C)C(=O)O)c2csc(N)n2)C(=O)N1S(=O)(=O)O [Aztreonam]	45
CC(=O)OCC1=C(C(=O)O)N2C(=O)[C@@H](NC(=O)Cc3cccs3)[C@H]2SC1 [Cephalothin]	15
CC1(C)S[C@@H]2[C@H](NC(=O)Cc3ccccc3)C(=O)N2[C@H]1C(=O)O [Penicillin G]	95

Biological target: T1, MUN-1 beta-lactamase
Test: kinetic measurement, purified beta-lactamase
Assay type: biochemical, Escherichia coli
Conditions: covalent (acylation without deacylation suggested); details in supplement
Description: kinetic measurement, purified beta-lactamase on MUN-1 beta-lactamase

SMILES	Ki [nM]
CC(C)(O/N=C(\C(=O)N[C@@H]1C(=O)N2C(C(=O)[O-])=C(C[n+]3ccccc3)CS[C@H]12)c1csc(N)n1)C(=O)O [Ceftazidime]	580
CCN1CCN(C(=O)N[C@@H](C(=O)N[C@@H]2C(=O)N3[C@@H]2SC(C)(C)[C@@H]3C(=O)O)c2ccccc2)C(=O)C1=O [Piperacillin]	7.2

Same assay, conditions: details in supplement

SMILES	Ki [nM]
C[C@@H](O)[C@H]1C(=O)N2C(C(=O)O)=C(S[C@@H]3CN[C@H](C(=O)Nc4cccc(C(=O)O)c4)C3)[C@H](C)[C@H]12 [Ertapenem]	17
C[C@@H](O)[C@H]1C(=O)N2C(C(=O)O)=C(SCCN=CN)C[C@H]12 [Imipenem]	1.3
C[C@@H](O)[C@H]1C(=O)N2C(C(=O)O)=C(S[C@@H]3CN[C@H](C(=O)N(C)C)C3)[C@H](C)[C@H]12 [Meropenem]	19
CC1(C)S[C@@H]2[C@H](NC(=O)[C@H](C(=O)O)c3ccsc3)C(=O)N2[C@H]1C(=O)O [Ticarcillin]	3.6

Reference: publication PMC10989005, “Inter-phylum circulation of a beta-lactamase-encoding gene: a rare but observable event” (Antimicrobial Agents and Chemotherapy, 2024)
